Test results as given in patent publication US12246008B2, “4-amino or 4-alkoxy-substituted aryl sulfonamide compounds with selective activity in voltage-gated sodium channels” (Merck Sharp & Dohme LLC, priority 2018, dated 2025).
Where two headings read alike, the source gives them in different places.

Assays:
Experiment in all cases: Qube automated patch-clamp assay, inhibition of sodium current
Format in all cases: cell-based
[1] = biological target: T1, human Nav1.6 channels stably expressed in HEK 293 cells (Homo sapiens, UniProt Q9UQD0); conditions: holding potential −65 mV; max concentration tested 33750 nM
T1 construct: expressed in transfected cells; host or cells: HEK 293
Experimental: (§1) Qube™ Experimental Procedure:
(§2) Compounds were tested on human Nav1.7 and Nav1.6 channels stably expressed in HEK 293 cells. […] Cells were sealed on a planar substrate using the multihole technology. Cells expressing human Nav1.7 channels were held at −75 mV or −80 mV. Cells expressing human Nav1.6 channels were held at −65 mV. A train of 6 consecutive test pulses to −10 mV, preceded by 8 s prepulses to −115 mV, was applied at a frequency of 0.1 Hz before and after compound addition. Cells in each Qchip well were incubated in compound for 5 minutes before measuring inhibition. Peak currents were measured in control conditions and after compound addition. The following recording solutions were used (mM). External Nav1.6: 150 NaCl, 2 CaCl2), 5 KCl, 1 Mg Cl2, 10 HEPES, 12 Dextrose; external Nav1.7: 40 NaCl, 120 NMDG, 1 KCl, 0.5 MgCl2, 5 HEPES, 2.7 CaCl2); internal: 120 CsF, 30 CsCl, 10 EGTA, 5 HEPES, 5 NaF, 2 MgCl2. Compounds were prepared as 10 mM stock solutions in DMSO. 10 point compound titrations were generated using the Echo acoustic liquid handling instrument and glass coated 384 well plates. The final DMSO concentration in the assay was 0.3%. For all electrophysiology experiments, offline analysis was used to determine percent inhibition as a function of drug concentration. IC50 values were determined by fitting to the Hill equation.
(§3) The various compounds in EXAMPLES 1 through 43 and TABLE 2 exemplified above were assayed for activity and selectivity using the foregoing Qube® technique. The results are reported in TABLE 3 in a format expressing the identification of the compound with reference EXAMPLE followed by the observed potency in nM for NaV1.7, NaV1.6 and NaV1.5. NA signifies not applicable and the max concentration tested is 33750 nM.

[2] = biological target: T2, human Nav1.7 channels stably expressed in HEK 293 cells (Homo sapiens, UniProt Q15858); conditions: max concentration tested 33750 nM, read-out: NaV1.7 (nM)
T2 construct: expressed in transfected cells; host or cells: HEK 293
Experimental: as §1, §2, §3

NaV1.5 = NaV1.5 (Homo sapiens, UniProt Q14524); conditions: holding potential −80 mV; max concentration tested 33750 nM
Experimental: as §2, §3

[3] = holding potential −75 mV, −75 mV

T1 sequence (Q9UQD0 whole entry): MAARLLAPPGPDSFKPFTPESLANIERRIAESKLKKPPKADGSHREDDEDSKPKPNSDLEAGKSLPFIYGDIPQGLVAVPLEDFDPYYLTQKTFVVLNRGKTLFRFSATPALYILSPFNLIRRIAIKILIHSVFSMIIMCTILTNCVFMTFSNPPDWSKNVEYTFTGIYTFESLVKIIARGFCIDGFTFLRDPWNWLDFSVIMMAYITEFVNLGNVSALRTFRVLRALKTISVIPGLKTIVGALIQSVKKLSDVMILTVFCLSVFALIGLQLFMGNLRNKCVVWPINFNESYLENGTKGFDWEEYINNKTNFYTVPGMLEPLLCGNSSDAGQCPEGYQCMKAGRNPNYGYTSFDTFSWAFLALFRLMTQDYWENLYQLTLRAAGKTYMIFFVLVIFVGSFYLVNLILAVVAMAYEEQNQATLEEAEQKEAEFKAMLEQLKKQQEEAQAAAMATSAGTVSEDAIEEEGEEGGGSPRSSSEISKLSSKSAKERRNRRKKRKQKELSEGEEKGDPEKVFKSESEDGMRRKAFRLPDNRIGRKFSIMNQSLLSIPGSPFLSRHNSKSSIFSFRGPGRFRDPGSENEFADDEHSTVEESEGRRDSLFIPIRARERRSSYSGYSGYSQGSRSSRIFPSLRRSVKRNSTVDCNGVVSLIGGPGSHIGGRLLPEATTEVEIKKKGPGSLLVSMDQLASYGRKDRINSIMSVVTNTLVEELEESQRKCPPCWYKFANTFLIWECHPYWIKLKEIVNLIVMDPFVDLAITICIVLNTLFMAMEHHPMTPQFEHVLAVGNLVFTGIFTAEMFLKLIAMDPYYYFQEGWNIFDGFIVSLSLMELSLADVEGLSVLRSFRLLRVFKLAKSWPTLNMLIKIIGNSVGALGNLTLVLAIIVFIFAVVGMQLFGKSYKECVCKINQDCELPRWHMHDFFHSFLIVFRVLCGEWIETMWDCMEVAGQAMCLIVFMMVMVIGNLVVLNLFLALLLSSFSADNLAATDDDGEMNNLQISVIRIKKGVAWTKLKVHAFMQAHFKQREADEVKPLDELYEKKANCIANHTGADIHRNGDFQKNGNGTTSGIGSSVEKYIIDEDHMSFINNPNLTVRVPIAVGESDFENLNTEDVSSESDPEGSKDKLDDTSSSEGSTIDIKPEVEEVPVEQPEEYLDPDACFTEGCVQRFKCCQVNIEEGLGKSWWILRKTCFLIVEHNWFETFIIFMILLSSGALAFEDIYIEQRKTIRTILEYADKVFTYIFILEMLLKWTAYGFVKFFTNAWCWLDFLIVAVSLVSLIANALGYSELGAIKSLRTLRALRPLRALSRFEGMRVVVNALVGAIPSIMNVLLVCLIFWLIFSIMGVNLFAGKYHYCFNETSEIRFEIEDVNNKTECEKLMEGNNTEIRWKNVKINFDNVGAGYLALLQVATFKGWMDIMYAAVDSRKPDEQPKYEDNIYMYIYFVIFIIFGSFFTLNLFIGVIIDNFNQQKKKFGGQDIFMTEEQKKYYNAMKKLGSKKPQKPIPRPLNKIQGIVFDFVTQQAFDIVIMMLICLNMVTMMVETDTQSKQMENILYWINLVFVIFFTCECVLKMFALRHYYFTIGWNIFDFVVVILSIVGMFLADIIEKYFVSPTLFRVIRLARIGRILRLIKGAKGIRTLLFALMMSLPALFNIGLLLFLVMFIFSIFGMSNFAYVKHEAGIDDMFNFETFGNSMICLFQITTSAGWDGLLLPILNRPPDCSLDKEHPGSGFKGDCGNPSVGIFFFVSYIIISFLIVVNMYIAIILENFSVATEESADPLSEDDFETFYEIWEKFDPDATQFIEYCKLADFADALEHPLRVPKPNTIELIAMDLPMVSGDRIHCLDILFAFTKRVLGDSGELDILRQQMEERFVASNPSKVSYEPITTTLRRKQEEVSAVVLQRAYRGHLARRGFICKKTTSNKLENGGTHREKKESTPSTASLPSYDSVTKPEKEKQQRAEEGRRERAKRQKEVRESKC
T2 sequence (Q15858 whole entry): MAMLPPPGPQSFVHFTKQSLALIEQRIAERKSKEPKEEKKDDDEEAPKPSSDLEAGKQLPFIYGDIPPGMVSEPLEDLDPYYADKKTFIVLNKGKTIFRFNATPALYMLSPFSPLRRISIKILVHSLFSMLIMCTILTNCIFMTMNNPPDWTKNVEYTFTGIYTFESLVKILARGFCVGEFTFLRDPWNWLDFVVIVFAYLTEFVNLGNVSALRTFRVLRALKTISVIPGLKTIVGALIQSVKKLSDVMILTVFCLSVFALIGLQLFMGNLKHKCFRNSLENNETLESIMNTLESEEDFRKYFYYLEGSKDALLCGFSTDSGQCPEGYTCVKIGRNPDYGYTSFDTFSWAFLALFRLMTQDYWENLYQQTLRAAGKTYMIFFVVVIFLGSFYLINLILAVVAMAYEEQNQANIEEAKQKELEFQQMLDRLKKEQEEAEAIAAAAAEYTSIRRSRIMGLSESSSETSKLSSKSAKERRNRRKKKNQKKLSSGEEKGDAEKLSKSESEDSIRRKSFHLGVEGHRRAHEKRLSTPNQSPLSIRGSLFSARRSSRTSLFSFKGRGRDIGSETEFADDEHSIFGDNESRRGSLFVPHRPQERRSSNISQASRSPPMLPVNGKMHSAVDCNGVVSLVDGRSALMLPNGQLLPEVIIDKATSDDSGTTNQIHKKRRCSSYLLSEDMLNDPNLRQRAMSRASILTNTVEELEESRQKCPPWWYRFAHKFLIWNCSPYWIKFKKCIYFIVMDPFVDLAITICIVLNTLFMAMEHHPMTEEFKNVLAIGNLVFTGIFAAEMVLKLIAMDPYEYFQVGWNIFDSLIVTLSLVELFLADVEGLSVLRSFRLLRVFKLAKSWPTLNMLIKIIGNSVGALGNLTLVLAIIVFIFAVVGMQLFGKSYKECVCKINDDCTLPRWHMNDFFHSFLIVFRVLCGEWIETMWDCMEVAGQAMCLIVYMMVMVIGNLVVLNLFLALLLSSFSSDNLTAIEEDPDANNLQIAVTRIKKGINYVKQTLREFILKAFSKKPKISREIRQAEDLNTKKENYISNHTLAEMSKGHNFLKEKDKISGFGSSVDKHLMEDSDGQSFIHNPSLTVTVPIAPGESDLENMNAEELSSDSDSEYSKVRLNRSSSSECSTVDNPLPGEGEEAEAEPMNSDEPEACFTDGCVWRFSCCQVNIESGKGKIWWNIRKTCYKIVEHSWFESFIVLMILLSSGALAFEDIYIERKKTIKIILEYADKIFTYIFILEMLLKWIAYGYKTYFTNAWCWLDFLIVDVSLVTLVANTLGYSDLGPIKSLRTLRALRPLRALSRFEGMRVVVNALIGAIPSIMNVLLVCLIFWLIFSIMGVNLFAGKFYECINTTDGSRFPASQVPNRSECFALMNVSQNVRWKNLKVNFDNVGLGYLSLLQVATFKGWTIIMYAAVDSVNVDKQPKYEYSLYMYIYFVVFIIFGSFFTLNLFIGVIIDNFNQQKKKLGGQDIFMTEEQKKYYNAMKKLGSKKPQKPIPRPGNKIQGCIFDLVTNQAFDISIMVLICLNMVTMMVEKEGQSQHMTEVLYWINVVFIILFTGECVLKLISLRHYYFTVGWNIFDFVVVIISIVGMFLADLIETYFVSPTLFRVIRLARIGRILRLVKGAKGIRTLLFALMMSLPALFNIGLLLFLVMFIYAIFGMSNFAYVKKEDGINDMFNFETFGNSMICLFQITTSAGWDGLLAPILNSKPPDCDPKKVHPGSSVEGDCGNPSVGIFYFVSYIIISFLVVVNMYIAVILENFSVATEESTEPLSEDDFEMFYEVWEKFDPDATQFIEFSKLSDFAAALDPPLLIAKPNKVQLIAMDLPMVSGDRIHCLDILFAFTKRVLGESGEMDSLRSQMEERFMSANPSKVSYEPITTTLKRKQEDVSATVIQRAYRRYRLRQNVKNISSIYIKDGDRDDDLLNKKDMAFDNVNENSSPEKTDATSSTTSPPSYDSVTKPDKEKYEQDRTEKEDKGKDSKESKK

Structure (SMILES) | IC50 [1] [nM] | IC50 [2, 3] [nM] | IC50 ([2]; holding potential −80 mV, −80 mV) [nM] | IC50 (NaV1.5) [nM]
Cc1cc(NC[C@H](CC(C)(C)CCN)[C@@H](C)N)c(C#N)cc1S(=O)(=O)Nc1ncns1 [Example 68] | 10100 | 37 |  | > 33800
CCC(N)C[C@@H](CNc1cc(F)c(S(=O)(=O)Nc2ncns2)cc1OC)[C@@H](C)N (stereo partly drawn) [Example 83] | > 33800 | 48 |  | > 33800
C[C@@H](N)[C@H](CNc1ccc(S(=O)(=O)Nc2ncns2)c(F)c1F)CC1(CCN)CCC1 [Example 100] | > 33800 |  | 52 | > 33800

Continued, in another order:

IC50 [1] [nM] | IC50 [2, 3] [nM] | IC50 ([2]; holding potential −80 mV, −80 mV) [nM] | Structure (SMILES) | IC50 (NaV1.5) [nM]
> 33800 | 23 |  | COc1cc(S(=O)(=O)Nc2ncns2)c(F)cc1NCC(CC1(CN)CCC1)[C@@H](C)N (stereo partly drawn) [Example 73] | > 33800
> 33800 | 71 |  | C[C@@H](N)[C@H](CNc1cc(F)c(S(=O)(=O)Nc2ncns2)cc1CO)CC(N)C1CC1 (stereo partly drawn) [Example 80] | > 33800
> 33800 | 110 |  | C[C@@H](N)C(CNc1cc(F)c(S(=O)(=O)Nc2ncns2)cc1Cl)CN1CCCC1 (stereo partly drawn) [Example 110] | > 33800
